The source of these data is paper PMC5489263 (Science Advances, 2017).

The target in test [1] is C. glabrata mating receptor (Cg.Ste2) (Candida glabrata, UniProt Q6FLY8). Briefly: cell-based.
For test [2], the target named is Le.Ste2 mating receptor (Lodderomyces elongisporus, UniProt A5E1D9). Briefly: cell-based.

Ends that are not written are not given here.

C. glabrata mating receptor (Cg.Ste2), sequence (Q6FLY8 entry or part of it): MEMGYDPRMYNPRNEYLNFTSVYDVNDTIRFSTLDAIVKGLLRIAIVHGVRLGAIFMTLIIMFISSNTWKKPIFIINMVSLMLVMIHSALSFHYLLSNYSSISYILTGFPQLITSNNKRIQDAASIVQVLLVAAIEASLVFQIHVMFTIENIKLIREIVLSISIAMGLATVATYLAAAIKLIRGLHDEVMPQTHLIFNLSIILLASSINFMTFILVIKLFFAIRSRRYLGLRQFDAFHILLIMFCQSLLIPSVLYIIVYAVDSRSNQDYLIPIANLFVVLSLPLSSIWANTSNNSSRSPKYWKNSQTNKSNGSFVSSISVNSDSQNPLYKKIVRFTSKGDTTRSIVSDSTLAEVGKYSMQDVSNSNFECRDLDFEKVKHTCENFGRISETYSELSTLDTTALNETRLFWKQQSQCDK
Le.Ste2 mating receptor, sequence (A5E1D9 entry or part of it): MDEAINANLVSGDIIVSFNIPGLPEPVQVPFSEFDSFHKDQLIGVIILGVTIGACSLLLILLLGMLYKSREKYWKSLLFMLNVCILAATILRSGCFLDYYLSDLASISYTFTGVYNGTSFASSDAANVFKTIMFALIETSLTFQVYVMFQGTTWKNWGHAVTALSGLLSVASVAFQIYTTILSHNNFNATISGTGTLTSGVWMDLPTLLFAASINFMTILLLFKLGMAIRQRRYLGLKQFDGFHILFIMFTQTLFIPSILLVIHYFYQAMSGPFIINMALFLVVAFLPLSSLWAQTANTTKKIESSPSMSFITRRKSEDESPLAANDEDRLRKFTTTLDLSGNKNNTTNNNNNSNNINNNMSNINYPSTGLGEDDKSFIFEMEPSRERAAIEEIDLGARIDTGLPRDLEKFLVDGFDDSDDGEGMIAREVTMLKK

The sequence WHWVRLRKGQGLF [Cg – Candida glabrata] showed a half-maximal effective concentration (EC50) in test [1] of 14 µM. Turning to “WMWTRYGRFSPV [Le – Lodderomyces elongisporus]”, the response in test [2] was half-maximal at 54 nM (EC50).
